{"source": "patent US8658183B2", "about": "“Antimicrobial parenteral formulation” (Taigen Biotechnology Company, Ltd., priority 2007, dated 2014)", "key": {"[1]": {"assay": "Effect of pH on Compound 1 saline formulation", "type": "physicochemical", "description": "2000 mL solution of Compound 1 in 0.9% saline was prepared in the same manner as described above. The solution was equally divided into 6 portions. The pH values for the 6 portions were adjusted to 2.43, 3.00, 3.76, 4.51, 6.01 and 7.13 by adding dilute hydrochloric acid or sodium hydroxide. The appearance and content of solutions were analyzed and shown below."}, "[2]": {"assay": "Effect of temperature and time during sterilization on Compound 1 saline formulation", "type": "physicochemical", "conditions": "0.9% saline", "description": "To the solution was added 1.5 g of activated charcoal (0.05% g/mL). The mixture was stirred for 15 min and filtered. The filtrate was added to a serious of 100-mL polypropylene bottles. The filled bottles were capped, sealed, and divided into four groups (7 bottles/group)."}, "MRSA": {"system": "MRSA", "assay": "In vitro antibacterial activity, agar dilution", "type": "cell-based, S. aureus", "description": "Various bacterial species, such as Gram positive bacteria (e.g., Clostridium, Staphylococcus and Streptococcus), Gram negative bacteria (e.g., Moraxella, Haemophilus, Pseudomonas, Proteus, and Bacteriodes), anaerobic and atypical pathogens, were isolated from clinical samples. The antibacterial activity of Compound of Formula I against these bacterial species were determined using agar dilution assays described in the U.S. National Committee for Clinical Laboratory, M7-A6, 2003, and M11-A5, 2001."}, "[3]": {"conditions": "5 mg/mL in 5% dextrose", "quoted_text": "The solution was filtered and transferred to in 100-mL polypropylene bottles. The bottles were capped, sealed, sterilized at 110° C. for 35 min, and stored at 60° C. oven. The solution in the bottles was analyzed on days 0, 5, and 10."}, "[4]": {"conditions": "5 mg/mL in 0.9% saline, pH 3.00"}, "[5]": {"conditions": "5 mg/mL in 0.9% saline, pH 3.76 (no acid/base added)"}, "[6]": {"conditions": "5 mg/mL in 0.9% saline, pH 6.01"}, "[7]": {"conditions": "sterile temperature N/A (control group)"}, "[8]": {"conditions": "0 day, after sterilization (110° C., 35 min)"}}, "note": "Like-named read-outs stand apart in the source and are kept apart here."}
{"smiles": "COc1c(N2C[C@@H](C)C[C@H](N)C2)ccc2c(=O)c(C(=O)O)cn(C3CC3)c12", "note": "[Compound 1, (3S,5S)-7-[3-amino-5-methyl-piperidinyl]-1-cyclopropyl-1,4-dihydro-8-methoxy-4-oxo-3-quinolinecarboxylic acid]", "values": [{"measurement": "pH Value", "setting": "[1]; 5 mg/mL in 0.9% saline, no acid/base added", "result": 3.76}, {"measurement": "Appearance", "setting": "[1]; [4]", "result": "clear yellow solution"}, {"measurement": "Comparative content of Compound 1 (%)", "setting": "[1]; [4]", "result": 94.87, "unit": "%"}, {"measurement": "Appearance", "setting": "[1]; [5]", "result": "clear yellow solution"}, {"measurement": "Comparative content of Compound 1 (%)", "setting": "[1]; [5]", "result": 103.62, "unit": "%"}, {"measurement": "Appearance", "setting": "[1]; [6]", "result": "clear yellow solution"}, {"measurement": "Comparative content of Compound 1 (%)", "setting": "[1]; [6]", "result": 99.63, "unit": "%"}, {"measurement": "pH at which Compound 1 precipitated", "setting": "[1]; 5 mg/mL in a saline solution", "result": 6.6}, {"measurement": "Content (%)", "setting": "[2]; [7]", "result": 95.20, "unit": "%"}, {"measurement": "Total Impurity (%)", "setting": "[2]; [7]", "result": 0.167, "unit": "%"}, {"measurement": "pH Value", "setting": "[2]; [7]", "result": 3.86}, {"measurement": "Content (%)", "setting": "[2]; sterilization 105° C./35 min", "result": 96.44, "unit": "%"}, {"measurement": "Total Impurity (%)", "setting": "[2]; sterilization 105° C./35 min", "result": 0.198, "unit": "%"}, {"measurement": "pH Value", "setting": "[2]; sterilization 105° C./35 min", "result": 3.86}, {"measurement": "Content (%)", "setting": "[2]; sterilization 110° C./35 min", "result": 95.86, "unit": "%"}, {"measurement": "Total Impurity (%)", "setting": "[2]; sterilization 110° C./35 min", "result": 0.240, "unit": "%"}, {"measurement": "pH Value", "setting": "[2]; sterilization 110° C./35 min", "result": 3.86}, {"measurement": "Content (%)", "setting": "[2]; sterilization 115° C./35 min", "result": 95.98, "unit": "%"}, {"measurement": "Total Impurity (%)", "setting": "[2]; sterilization 115° C./35 min", "result": 0.509, "unit": "%"}, {"measurement": "pH Value", "setting": "[2]; sterilization 115° C./35 min", "result": 3.85}, {"measurement": "MIC90", "setting": "MRSA; ciprofloxacin-resistant MRSA clinical isolates", "result": 1, "unit": "µg/mL"}, {"measurement": "MIC90", "setting": "MRSA; ciprofloxacin-sensitive MRSA clinical isolates", "result": 0.06, "unit": "µg/mL"}, {"measurement": "Appearance", "setting": "[3]; [8]", "result": "Clear yellow"}, {"measurement": "Comparative content of Compound 1 (%)", "setting": "[3]; [8]", "result": 97.8, "unit": "%"}, {"measurement": "pH", "setting": "[3]; [8]", "result": 3.88}, {"measurement": "Appearance", "setting": "[3]; 0 day, before sterilization", "result": "Clear yellow"}, {"measurement": "Comparative content of Compound 1 (%)", "setting": "[3]; 0 day, before sterilization", "result": 100.4, "unit": "%"}, {"measurement": "pH", "setting": "[3]; 0 day, before sterilization", "result": 3.89}, {"measurement": "Appearance", "setting": "[3]; 5 days at 60° C.", "result": "Dark yellow"}, {"measurement": "Comparative content of Compound 1 (%)", "setting": "[3]; 5 days at 60° C.", "result": 96.0, "unit": "%"}, {"measurement": "pH", "setting": "[3]; 5 days at 60° C.", "result": 4.03}, {"measurement": "Appearance", "setting": "[3]; 10 days at 60° C.", "result": "Brown"}, {"measurement": "Comparative content of Compound 1 (%)", "setting": "[3]; 10 days at 60° C.", "result": 94.2, "unit": "%"}, {"measurement": "pH", "setting": "[3]; 10 days at 60° C.", "result": 4.08}]}
